Experimental data: ChEMBL document CHEMBL4251580, “Exploiting polypharmacology for improving therapeutic outcome of kinase inhibitors (KIs): An update of recent medicinal chemistry efforts” (Eur J Med Chem, 2018)

Key:
[1] = molecular target: Epidermal growth factor receptor (Homo sapiens, UniProt P00533); test: Inhibition of C-terminal His-tagged and N-terminal GST tagged human EGFR (668 to 1210 residues) expressed in baculovirus infected Sf9 cells using KHKKLAEGSAYEEV substrate peptide and gamma-[32P]ATP
[2] = Inhibition of NF-kappaB (unknown origin) expressed in human U937 cells by luciferase reporter gene assay; type: cell-based; settings: U-937
MDA-MB-231 = test: Growth inhibition of human MDA-MB-231 cells incubated for 72 hrs by Cell-titer Glo luciferase-based assay; type: functional; settings: MDA-MB-231, 72 h

Epidermal growth factor receptor, sequence (P00533 whole entry, the tested form may be a part): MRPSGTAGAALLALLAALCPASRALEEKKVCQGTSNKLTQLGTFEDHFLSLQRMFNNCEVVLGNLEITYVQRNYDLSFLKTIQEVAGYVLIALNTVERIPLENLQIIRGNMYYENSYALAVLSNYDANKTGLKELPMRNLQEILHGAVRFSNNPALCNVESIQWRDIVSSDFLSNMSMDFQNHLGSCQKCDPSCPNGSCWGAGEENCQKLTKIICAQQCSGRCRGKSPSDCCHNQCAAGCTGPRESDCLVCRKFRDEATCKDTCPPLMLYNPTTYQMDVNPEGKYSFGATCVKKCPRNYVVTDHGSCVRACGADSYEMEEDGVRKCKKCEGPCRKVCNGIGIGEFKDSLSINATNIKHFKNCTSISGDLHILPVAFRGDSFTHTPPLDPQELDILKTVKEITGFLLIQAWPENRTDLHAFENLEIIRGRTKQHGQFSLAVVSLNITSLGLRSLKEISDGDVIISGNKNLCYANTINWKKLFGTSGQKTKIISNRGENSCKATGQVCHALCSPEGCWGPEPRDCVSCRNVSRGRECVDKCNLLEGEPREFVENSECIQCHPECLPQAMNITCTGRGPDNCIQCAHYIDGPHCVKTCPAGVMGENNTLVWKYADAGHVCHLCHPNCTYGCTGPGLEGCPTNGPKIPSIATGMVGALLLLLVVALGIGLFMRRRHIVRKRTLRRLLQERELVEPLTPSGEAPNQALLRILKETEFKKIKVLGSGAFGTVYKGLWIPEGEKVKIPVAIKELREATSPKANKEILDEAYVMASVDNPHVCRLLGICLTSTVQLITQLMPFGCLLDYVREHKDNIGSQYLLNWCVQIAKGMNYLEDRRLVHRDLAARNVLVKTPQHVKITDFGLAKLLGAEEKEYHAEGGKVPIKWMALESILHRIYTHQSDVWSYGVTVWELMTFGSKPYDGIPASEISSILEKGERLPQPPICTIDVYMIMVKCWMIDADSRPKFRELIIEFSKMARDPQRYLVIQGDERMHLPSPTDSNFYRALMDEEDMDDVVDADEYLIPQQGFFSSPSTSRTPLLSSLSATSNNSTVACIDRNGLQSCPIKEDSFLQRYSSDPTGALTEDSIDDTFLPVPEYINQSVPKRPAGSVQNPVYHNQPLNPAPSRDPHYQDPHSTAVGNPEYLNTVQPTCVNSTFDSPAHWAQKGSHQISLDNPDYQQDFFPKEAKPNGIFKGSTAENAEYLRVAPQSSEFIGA

- IC50 [1]: 60 nM
- IC50 [2]: 300 nM
- GI50 (MDA-MB-231): 1100 nM
Structure (SMILES): Fc1cc(F)cc(NC(=S)Nc2ccc3ncnc(Nc4cccc(Br)c4)c3c2)c1
